Drawing on US12466800B2, “N-((1,2,3,5,6,7-hexahydro-S-indacen-4-yl)carbamoyl)-4, 5, 6, 7-tetrahydrobenzofuran-2-sulfonamide derivatives and related compounds as NLPR3 modulators for the treatment of multiple sclerosis (MS)” (Zomagen Biosciences Ltd, priority 2019, dated 2025), this text covers IC50 for ten compounds.

For this assay, the system named is IL-1b. The assay can be described thus: Mouse BMDM IL-1b Assay. The assay is classed as cell-based. The settings on record: Macrophage; mouse bone marrow derived macrophages (C57BL6); 200 ng/mL LPS 3 h, compound 30 min, 5 mM ATP 45 min; IL-1b ELISA of supernatant. The method in brief: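 C57BL6 bone marrow macrophages, differentiated 7 days with 20 ng/mL MCSF, were primed with 200 ng/mL LPS for 3 h at 37° C, given compound for 30 min, then 5 mM ATP for 45 min. Supernatant IL-1b was measured by ELISA against standards; IC50 fitted by Levenberg-Marquardt.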
(In an ELISA, binding on a coated surface is turned into a signal by an enzyme label.)
As usually defined, the IC50 is the concentration that inhibits the measured activity by half. On to `O=C(Nc1c2c(c(Cl)c3c1CCC3)CCC2)NS(=O)(=O)c1cc2c(o1)CCCCC2O` (stereo not shown) [Compound 117, N-((8-chloro-1,2,3,5,6,7-hexahydro-s-indacen-4-yl)carbamoyl)-4-hydroxy-5,6,7,8-tetrahydro-4H-cyclohepta[b]furan-2-sulfonamide], for which the IC50 is under 100 nM.
The compound `O=C(Nc1c2c(c(Br)c3c1CCC3)CCC2)NS(=O)(=O)c1cc2c(o1)CCCCC2O` (stereo not shown) [Compound 118, N-((8-bromo-1,2,3,5,6,7-hexahydro-s-indacen-4-yl)carbamoyl)-4-hydroxy-5,6,7,8-tetrahydro-4H-cyclohepta[b]furan-2-sulfonamide] gave an IC50 of under 100 nM.
Then `CC(C)c1ccc(F)c(C(C)C)c1NC(=O)NS(=O)(=O)c1cc2c(o1)CCCCC2O` (stereo not shown) [Compound 119, N-((3-fluoro-2,6-diisopropylphenyl)carbamoyl)-4-hydroxy-5,6,7,8-tetrahydro-4H-cyclohepta[b]furan-2-sulfonamide], with 100 to 1000 nM; and `CC(C)c1ccc(Cl)c(C(C)C)c1NC(=O)NS(=O)(=O)c1cc2c(o1)CCCCC2O` (stereo not shown) [Compound 120, N-((3-chloro-2,6-diisopropylphenyl)carbamoyl)-4-hydroxy-5,6,7,8-tetrahydro-4H-cyclohepta[b]furan-2-sulfonamide], with 100 to 1000 nM.
On to `CC(C)c1cc(F)cc(C(C)C)c1NC(=O)NS(=O)(=O)c1cc2c(o1)CCCCC2(C)O` (stereo not shown) [Compound 121, N-((4-fluoro-2,6-diisopropylphenyl)carbamoyl)-4-hydroxy-4-methyl-5,6,7,8-tetrahydro-4H-cyclohepta[b]furan-2-sulfonamide], for which the IC50 is 100 to 1000 nM.
In turn, `CC(C)c1cc(Cl)cc(C(C)C)c1NC(=O)NS(=O)(=O)c1cc2c(o1)CCCCC2(C)O` (stereo not shown) [Compound 122, N-((4-chloro-2,6-diisopropylphenyl)carbamoyl)-4-hydroxy-4-methyl-5,6,7,8-tetrahydro-4H-cyclohepta[b]furan-2-sulfonamide] yielded an IC50 of under 100 nM.
As for `CC1(O)CCCc2sc(S(=O)(=O)NC(=O)Nc3c4c(cc5c3CCC5)CCC4)cc21` (stereo not shown) [Compound 123, N-((1,2,3,5,6,7-hexahydro-s-indacen-4-yl)carbamoyl)-4-hydroxy-4-methyl-4,5,6,7-tetrahydrobenzo[b]thiophene-2-sulfonamide], the figure is under 100 nM; as for `O=C(Nc1c2c(cc3c1CCC3)CCC2)NS(=O)(=O)c1cc2c(s1)CCCC2O` (stereo not shown) [Compound 124, N-((1,2,3,5,6,7-hexahydro-s-indacen-4-yl)carbamoyl)-4-hydroxy-4,5,6,7-tetrahydrobenzo[b]thiophene-2-sulfonamide], under 100 nM.
`O=C(Nc1c2c(cc3c1CCC3)CCC2)NS(=O)(=O)c1cc2c(s1)CCC/C2=N/O` [Compound 125, (Z)-N-((1,2,3,5,6,7-hexahydro-s-indacen-4-yl)carbamoyl)-4-(hydroxyimino)-4,5,6,7-tetrahydrobenzo[b]thiophene-2-sulfonamide] returned an IC50 of under 100 nM.
As for `O=C(O)CCC1(O)CCCc2oc(S(=O)(=O)NC(=O)Nc3c4c(cc5c3CCC5)CCC4)cc21` (stereo not shown) [Compound 126, 3-(2-(N-((1,2,3,5,6,7-hexahydro-s-indacen-4-yl)carbamoyl)sulfamoyl)-4-hydroxy-4,5,6,7-tetrahydrobenzofuran-4-yl)propanoic acid], the figure is 100 to 1000 nM.
